Source: patent publication US10077237B2 (Sanofi, priority 2013, dated 2018)
“And” between values parts separate entries of the source, which are not always exact repeats. Equal values may be shown once. Where a name gives a salt, the structure may show the parent alone.

Molecular target: T1, recombinant human AMPK complex, containing α2β1γ2 (Homo sapiens, UniProt P54646+Q9Y478)
T1 construct: hsAMPKα2-552-His, hsAMPKβ1-2-270 and hsAMPKγ-2-569 respectively; hsAMPKβ1-2-270; hsAMPKγ-2-569; His (C); made in house; host or cells: Spodoptera frugiperda Sf21 (baculovirus)
T1 sequence (P54646 2-552): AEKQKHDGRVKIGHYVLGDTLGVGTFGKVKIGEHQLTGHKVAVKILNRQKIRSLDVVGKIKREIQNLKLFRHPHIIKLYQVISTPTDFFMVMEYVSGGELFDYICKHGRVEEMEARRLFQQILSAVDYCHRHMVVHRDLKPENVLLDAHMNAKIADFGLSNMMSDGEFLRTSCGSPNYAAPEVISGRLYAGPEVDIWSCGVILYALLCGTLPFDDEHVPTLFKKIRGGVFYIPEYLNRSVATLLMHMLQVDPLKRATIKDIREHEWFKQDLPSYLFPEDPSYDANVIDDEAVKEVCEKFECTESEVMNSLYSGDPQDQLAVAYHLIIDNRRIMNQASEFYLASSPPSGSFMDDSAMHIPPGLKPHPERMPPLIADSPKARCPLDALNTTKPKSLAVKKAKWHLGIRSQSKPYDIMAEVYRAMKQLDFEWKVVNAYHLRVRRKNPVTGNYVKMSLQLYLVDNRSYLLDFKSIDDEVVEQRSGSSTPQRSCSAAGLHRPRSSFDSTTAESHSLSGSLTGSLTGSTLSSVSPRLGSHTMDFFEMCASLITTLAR
T1 sequence (Q9Y478 2-270): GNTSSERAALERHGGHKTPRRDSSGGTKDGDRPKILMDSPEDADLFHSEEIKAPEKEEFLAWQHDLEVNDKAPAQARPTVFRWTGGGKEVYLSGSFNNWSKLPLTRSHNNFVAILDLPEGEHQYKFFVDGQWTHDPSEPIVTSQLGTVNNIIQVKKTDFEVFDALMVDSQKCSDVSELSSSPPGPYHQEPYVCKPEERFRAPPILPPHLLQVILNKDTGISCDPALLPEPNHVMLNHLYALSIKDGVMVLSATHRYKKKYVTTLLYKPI
T1 sequence (Q9UGJ0 2-569 partner limits assumed): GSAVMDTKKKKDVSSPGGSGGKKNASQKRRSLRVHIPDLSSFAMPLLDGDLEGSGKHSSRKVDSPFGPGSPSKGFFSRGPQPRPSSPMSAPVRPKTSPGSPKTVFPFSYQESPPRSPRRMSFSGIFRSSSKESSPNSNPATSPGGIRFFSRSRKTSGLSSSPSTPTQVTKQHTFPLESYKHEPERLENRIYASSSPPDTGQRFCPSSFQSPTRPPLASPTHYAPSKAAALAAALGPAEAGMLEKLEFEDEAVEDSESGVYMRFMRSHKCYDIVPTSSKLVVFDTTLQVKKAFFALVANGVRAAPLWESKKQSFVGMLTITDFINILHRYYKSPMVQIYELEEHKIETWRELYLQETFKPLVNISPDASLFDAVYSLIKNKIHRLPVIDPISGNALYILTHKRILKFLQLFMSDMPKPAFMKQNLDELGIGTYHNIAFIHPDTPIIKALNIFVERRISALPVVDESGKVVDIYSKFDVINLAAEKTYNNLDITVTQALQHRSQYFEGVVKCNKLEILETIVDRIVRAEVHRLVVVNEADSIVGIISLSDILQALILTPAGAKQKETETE
Experiment: AMPK in vitro activation assay (HTRF)
Format: biochemical
Details: for EC50: HTRF, recombinant human α2β1γ2 AMPK, 200 μM ATP, biotinylated ACC-CREBp peptide, repeat determinations on separate lines
Summary of the method: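 Sf21-expressed, Ni-NTA partially purified α2β1γ2 complex preincubated 30 min at room temperature with compound (0.5% DMSO) in HEPES pH 7.0, MgCl2, DTT. Reaction was started with a solution holding 200 μM ATP and 2 or 0.08 μM biotinylated ACC-CREBp peptide, run 45 min at 37° C, then read by HTRF with anti-pS133-CREB; EC50 from percent over basal.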

[1] = potentiation of AMPK activity as percent over the basal signal (without compound)

| Compound | EC50 | Emax [1] [%] | α2β1γ2 AMPK Emax [1] |
| --- | --- | --- | --- |
| Cc1cc(C(O)=C2C(=O)Nc3cc(Cl)c(-c4ccc(N5CCCC5)cc4)cc32)on1 [Compound 24, 6-Chloro-3-[1-hydroxy-1-(3-methyl-isoxazol-5-yl)-methylidene]-5-(4-pyrrolidin-1-yl-phenyl)-1,3-dihydro-indol-2-one] | 110 nM | 143 |  |
| COc1cc(C(O)=C2C(=O)Nc3cc(Cl)c(-c4ccc(-c5cccc(OC)c5O)cc4)cc32)on1 [Compound 12] | 1 nM | 172 |  |
| Cc1cc(C(O)=C2C(=O)Nc3cc(Cl)c(-c4ccc(F)cc4)cc32)on1 [Compound 30, 6-Chloro-5-(4-fluoro-phenyl)-3-[1-hydroxy-1-(3-methyl-isoxazol-5-yl)-methylidene]-1,3-dihydro-indol-2-one] | 240 nM | 108 |  |
| COc1cc(C(O)=C2C(=O)Nc3cc(F)c(-c4ccc(C5(CO)CC5)cc4)c(F)c32)on1 [Compound 83, 4,6-difluoro-3-[hydroxy-(3-methoxyisoxazol-5-yl)methylene]-5-[4-[1-(hydroxymethyl)cyclopropyl]phenyl]indolin-2-one] | 0.1 nM |  |  |
| O=C1Nc2cc(Cl)c(-c3ccc(C4(CO)CC4)cc3)cc2C1=C(O)c1ccccc1F [Compound 46, 6-Chloro-3-[1-(2-fluoro-phenyl)-1-hydroxy-methylidene]-5-[4-(1-hydroxymethyl-cyclopropyl)-phenyl]-1,3-dihydro-indol-2-one] | 6 nM | 95 |  |
| COc1ccc(C(O)=C2C(=O)Nc3cc(Cl)c(-c4ccc(C5(CO)CC5)cc4)cc32)cc1F [Compound 88, 6-chloro-3-[(3-fluoro-4-methoxy-phenyl)hydroxy-methylene]-5-[4-[1-(hydroxymethyl)cyclopropyl]phenyl]indolin-2-one] | 0.6 nM and 0.4 nM |  |  |
| O=C1Nc2cc(Cl)c(-c3ccc(C4(CO)CC4)cc3)cc2C1=C(O)c1cc2cc(Cl)ccc2o1 [Compound 170, 6-chloro-3-[(5-chlorobenzofuran-2-yl)hydroxy-methylene]-5-[4-[1-(hydroxymethyl)cyclopropyl]phenyl]indolin-2-one] | 6 nM | 181 |  |
| COc1cc(C(O)=C2C(=O)Nc3cc(Cl)c(-c4ccc(C5=CCOCC5)cc4)cc32)on1 [Compound 67, 6-Chloro-5-[4-(3,6-dihydro-2H-pyran-4-yl)phenyl]-3-[1-hydroxy-1-(3-methoxy-isoxazol-5-yl)methylidene]-1,3-dihydro-indol-2-one] | 3 nM | 192 |  |
| Cc1cc(C(O)=C2C(=O)Nc3cc(Cl)c(-c4ccc(OCCN5CCOCC5)cc4)cc32)on1 [Compound 82, 6-chloro-3-[hydroxy-(3-methylisoxazol-5-yl)methylene]-5-[4-(2-morpholinoethoxy)phenyl]indolin-2-one hydrochloride] | 280 nM | 130 |  |
| O=C1Nc2cc(Cl)c(-c3ccc(N4CCOCC4)cc3)cc2C1=C(O)c1cccc(C(F)F)c1 [Compound 39, 6-Chloro-3-[1-(3-difluoromethyl-phenyl)-1-hydroxy-methylidene]-5-(4-morpholin-4-yl-phenyl)-1,3-dihydro-indol-2-one] | 620 nM | 168 |  |
| COc1cc(C(O)=C2C(=O)Nc3cc(Cl)c(-c4ccc(N(C)C5CC5)cc4)cc32)on1 [Compound 153, 6-chloro-5-[4-[cyclopropyl(methyl)amino]phenyl]-3-[hydroxy-(3-methoxyisoxazol-5-yl)methylene]indolin-2-one] | 7 nM | 234 |  |
| COc1cc(C(O)=C2C(=O)Nc3cc(Cl)c(-c4ccc(N(C)C)nc4)cc32)on1 [Compound 146, 6-chloro-5-[6-(dimethylamino)-3-pyridyl]-3-[hydroxy-(3-methoxyisoxazol-5-yl)methylene]indolin-2-one] | 88 nM | 278 |  |
| O=C1Nc2cc(Cl)c(-c3ccc(N4CCOCC4)cc3)cc2C1=C(O)c1cccc(O)c1 [Compound 3, 6-Chloro-3-[1-hydroxy-1-(3-hydroxy-phenyl)-methylidene]-5-(4-morpholin-4-yl-phenyl)-1,3-dihydro-indol-2-one] | 190 nM | 138 |  |
| 6-Chloro-3-[1-hydroxy-1-(3-methoxy-isoxazol-yl)-methylidene]-5-[4-(1-hydroxymethyl-cyclopropyl)-phenyl]-1,3-dihydro-indol-2-one [Compound 54] | 5 nM |  | (187) % |
| COc1cc(F)c(C(O)=C2C(=O)Nc3cc(Cl)c(-c4ccc(C5CC(O)C5)cc4)cc32)cc1F (stereo not drawn) [Compound 159, 6-chloro-3-[(2,5-difluoro-4-methoxy-phenyl)hydroxy-methylene]-5-[4-(3-hydroxycyclobutyl)phenyl]indolin-2-one] | 10 nM | 180 |  |
| COc1cc(C(O)=C2C(=O)Nc3cc(Cl)c(-c4ccc(C5CC(OC)C5)cc4)cc32)on1 (stereo not drawn) [Compound 165, 6-chloro-3-[hydroxy-(3-methoxyisoxazol-5-yl)methylene]-5-[4-(3-methoxycyclobutyl)phenyl]indolin-2-one] | 18 nM | 218 |  |
| Cc1cc(C(O)=C2C(=O)Nc3cc(Cl)c(-c4ccc(-c5csc(N)n5)cc4)cc32)on1 [Compound 37, 5-[4-(2-Amino-thiazol-4-yl)-phenyl]-6-chloro-3-[1-hydroxy-1-(3-methyl-isoxazol-5-yl)-methylidene]-1,3-dihydro-indol-2-one] | 37 nM | 192 |  |
| O=C1Nc2cc(Cl)c(-c3ccc(N4CCOCC4)cc3)cc2C1=C(O)c1cccc(C(F)(F)F)c1 [Compound 40, 6-Chloro-3-[1-hydroxy-1-(3-trifluoromethyl-phenyl)-methylidene]-5-(4-morpholin-4-yl-phenyl)-1,3-dihydro-indol-2-one] | 720 nM | 121 |  |
| O=C1Nc2cc(Cl)c(-c3ccc(N4CCOCC4)cc3)cc2C1=C(O)c1ccccc1 [Compound 43, 6-Chloro-3-[1-hydroxy-1-phenyl-methylidene]-5-(4-morpholin-4-yl-phenyl)-1,3-dihydro-indol-2-one] | 220 nM | 170 |  |
